Assay: Vasodilation activity against depolarization-induced contraction in anaesthetized white rabbit basilar artery
Type: functional, tissue-based, Oryctolagus cuniculus
Conditions: not given

| EC50 | SMILES |
| --- | --- |
| 2.78 µM | COc1cc(/C=C/C(=O)c2cccc(NS(=O)(=O)c3c(Cl)cccc3Cl)c2)ccc1O |
| 5.58 µM | COc1cc(/C=C/C(=O)c2cccc(NS(=O)(=O)c3ccc(Cl)cc3)c2)ccc1O |
| 7.48 µM | COc1cc(/C=C/C(=O)CC(=O)/C=C/c2ccc(O)c(OC)c2)ccc1O [CURCUMIN] |

Assay: Vasodilation activity against depolarization-induced contraction in anaesthetized white rabbit basilar artery at 10 uM
Type: functional, tissue-based
Conditions: Oryctolagus cuniculus

| SMILES | Activity |
| --- | --- |
| COc1cc(/C=C/C(=O)c2cccc(NS(=O)(=O)c3ccc(Cl)cc3Cl)c2)ccc1O | 4.2% |
| COc1cc(/C=C/C(=O)c2cccc(NS(=O)(=O)c3ccc(F)cc3)c2)ccc1O | 71.8% |
| COc1cc(/C=C/C(=O)c2cccc(NS(=O)(=O)c3c(Cl)cccc3Cl)c2)ccc1O | 99.4% |
| CCCC(=O)Nc1cccc(C(=O)/C=C/c2ccc(O)c(OC)c2)c1 | 32.3% |
| COc1cc(/C=C/C(=O)c2cccc(NC(=O)c3ccc(Cl)cc3Cl)c2)ccc1O | 27.9% |
| COc1cc(/C=C/C(=O)c2cccc(NS(=O)(=O)c3cccc(C(F)(F)F)c3)c2)ccc1O | 52.3% |
| COc1cc(/C=C/C(=O)c2cccc(NS(=O)(=O)c3cccs3)c2)ccc1O | 36.1% |
| COc1cc(/C=C/C(=O)c2cccc(NS(=O)(=O)c3cc(Cl)cc(Cl)c3)c2)ccc1O | 37.3% |
| COc1cc(/C=C/C(=O)c2cccc(NS(C)(=O)=O)c2)ccc1O | 4.2% |
| COc1cc(/C=C/C(=O)c2cccc(NS(=O)(=O)c3ccc(OC(F)(F)F)cc3)c2)ccc1O | 76.7% |
| COc1cc(/C=C/C(=O)c2cccc(NS(=O)(=O)c3ccccc3)c2)ccc1O | 40.4% |
| COc1ccc(S(=O)(=O)Nc2cccc(C(=O)/C=C/c3ccc(O)c(OC)c3)c2)cc1 | 26.4% |
| COc1cc(/C=C/C(=O)c2cccc(NC(=O)C(C)C)c2)ccc1O | 22.5% |
| COc1cc(/C=C/C(=O)c2cccc(N)c2)ccc1O | 8.3% |
| COc1cc(/C=C/C(=O)c2cccc(NS(=O)(=O)c3ccc(Cl)c(Cl)c3)c2)ccc1O | 30.2% |
| COc1cc(/C=C/C(=O)c2cccc(NC(=O)c3cccs3)c2)ccc1O | 27.1% |
| COc1cc(/C=C/C(=O)c2cccc(NC(C)=O)c2)ccc1O | 20.6% |
| COc1cc(/C=C/C(=O)c2cccc(NS(=O)(=O)C(C)C)c2)ccc1O | 8.4% |
| COc1cc(/C=C/C(=O)c2cccc(NC(=O)c3ccco3)c2)ccc1O | 41.7% |
| COc1cc(/C=C/C(=O)c2cccc(NS(=O)(=O)c3ccc(C(F)(F)F)cc3)c2)ccc1O | 65.8% |
| COc1cc(/C=C/C(=O)c2cccc(NS(=O)(=O)c3ccc(Cl)cc3)c2)ccc1O | 93.4% |
| CCCS(=O)(=O)Nc1cccc(C(=O)/C=C/c2ccc(O)c(OC)c2)c1 | 42.3% |
| COc1cc(/C=C/C(=O)CC(=O)/C=C/c2ccc(O)c(OC)c2)ccc1O [CURCUMIN] | 58.4% |

Source: ChEMBL document CHEMBL1152874, “Synthesis of sulfonyl curcumin mimics exerting a vasodilatation effect on the basilar artery of rabbits” (Bioorg Med Chem Lett, 2009)
